Article PMC3159548 (Biochemical pharmacology, 2011)
Residue numbers refer to the chain shown, from its start. In names and notes the source's numbering stands. Several values for one entry are separate records, joined by “and”; a condition that tells them apart may be missing. Equal entries are not always repeated. Structures can show the parent of a compound that is named as a salt. Where two headings read alike, the source gives them in different places.

Tests used:
CYP2C8 = details: excess of cytochrome b5 (up to 10:1)
CYP2C8.3 [1] = molecular target: T1, CYP2C8.3 (Homo sapiens, UniProt P10632, K399R/R139K); details: ref [8], cited from earlier work; for Clint: kcat/Km
T1 sequence (P10632 1-490 R139K/K399R): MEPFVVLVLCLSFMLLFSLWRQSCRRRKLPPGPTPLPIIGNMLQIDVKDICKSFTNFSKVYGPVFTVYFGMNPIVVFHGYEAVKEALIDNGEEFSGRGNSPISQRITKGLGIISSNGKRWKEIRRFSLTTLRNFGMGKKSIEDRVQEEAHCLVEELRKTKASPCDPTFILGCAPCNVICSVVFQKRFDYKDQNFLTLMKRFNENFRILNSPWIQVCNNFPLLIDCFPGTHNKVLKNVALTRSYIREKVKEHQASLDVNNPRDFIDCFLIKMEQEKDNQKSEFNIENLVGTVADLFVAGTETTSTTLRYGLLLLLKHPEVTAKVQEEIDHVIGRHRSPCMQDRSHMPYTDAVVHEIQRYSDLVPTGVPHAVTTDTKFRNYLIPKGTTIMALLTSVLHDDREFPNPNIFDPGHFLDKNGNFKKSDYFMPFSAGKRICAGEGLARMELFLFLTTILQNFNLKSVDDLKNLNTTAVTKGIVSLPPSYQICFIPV

[2] = molecular target: T2, P450 reductase - CYP2C8.3 complex (Homo sapiens, UniProt P10632, K399R/R139K); details: probe reaction of each substrate
T2 sequence (P10632 1-490 R139K/K399R): T1 sequence (P10632 1-490 R139K/K399R)

CYP2C8.3 [3] = molecular target: T1, CYP2C8.3; experiment: Equilibrium spectral binding of ligands and redox cofactors to purified CYP2C8.3; details: for % change in Bmax, first binding event / % change in Bmax, second binding event / % change in Bmax, redox partner binding: CYP2C8.3 in comparison to CYP2C8.1; for Kd: read-out: KD of redox partner, spectral binding of redox partner to CYP2C8.3
CYP2C8.1 [4] = molecular target: T3, CYP2C8.1 (Homo sapiens, UniProt P10632); details: ref [8], cited from earlier work; for Clint: kcat/Km
T3 sequence (P10632 1-490): T1 sequence (P10632 1-490 R139K/K399R) with K139R, R399K

CYP2C8.3 [5] = molecular target: T1, CYP2C8.3; details: absence of cytochrome b5 in the reconstitution system; CPR:CYP2C8 2:1
CYP2C8.3 [6] = molecular target: T1, CYP2C8.3
CYP2C8.1 [7] = molecular target: T3, CYP2C8.1; details: for Clint: kcat/Km
CYP2C8.3 [8] = molecular target: T1, CYP2C8.3; details: for Clint: kcat/Km
[9] = substrate: CN(CCOc1ccc(CC2SC(=O)NC2=O)cc1)c1ccccn1
[10] = substrate: CCN(CC)Cc1cc(Nc2ccnc3cc(Cl)ccc23)ccc1O
[11] = substrate: CC(=O)O[C@H]1C(=O)[C@@]2(C)[C@H]([C@H](OC(=O)c3ccccc3)[C@]3(O)C[C@H](OC(=O)[C@H](O)[C@@H](NC(=O)c4ccccc4)c4ccccc4)C(C)=C1C3(C)C)[C@]1(OC(C)=O)CO[C@@H]1C[C@@H]2O
[12] = substrate: CN(CCOc1ccc(CC2SC(=O)NC2=O)cc1)c1ccccn1; remark: listed apart in the source
[13] = substrate: CCN(CC)Cc1cc(Nc2ccnc3cc(Cl)ccc23)ccc1O; remark: listed apart in the source
CYP2C8.1 [14] = molecular target: T3, CYP2C8.1; experiment: Equilibrium spectral binding of ligands and redox cofactors to purified CYP2C8.1; details: read-out: KD of redox partner; spectral binding of redox partner to CYP2C8.1
[15] = CER hydroxylation (M23 formation)

COCc1c(C(C)C)nc(C(C)C)c(/C=C/[C@@H](O)C[C@@H](O)CC(=O)O)c1-c1ccc(F)cc1 [CER, (3R,5S,6E)-7-[4-(4-Fluorophenyl)-5-(methoxymethyl)-2,6-bis(1-methylethyl)-3-pyridinyl]-3,5-dihydroxy-6-heptenoic Acid Sodium Salt]
inhibition of CYP-activity by cytochrome b5 (CYP2C8): less evident | Clint (CYP2C8.3 [1]; CER O-demethylation): 0.11 µM⁻¹ min⁻¹ | Km (CYP2C8.3 [1]; CER O-demethylation): 13 ± 2 µM | kcat (CYP2C8.3 [1]; CER O-demethylation): 1.47 ± 0.06 (**) nmol nmol P450^−1 min^−1 | Km (CYP2C8.3 [1]; [15]): 13 ± 2 µM | kcat (CYP2C8.3 [1]; [15]): 0.61 ± 0.03 (**) nmol nmol P450^−1 min^−1 | Clint (CYP2C8.3 [1]; CER hydroxylation): 0.047 µM⁻¹ min⁻¹ | decrease of Km, red of CYP2C8.3 in comparison to CYP2C8.1 [2]: did not vary | % change in Bmax, first binding event (CYP2C8.3 [3]): +45% | % change in Bmax, second binding event (CYP2C8.3 [3]): +533% | Clint (CYP2C8.1 [4]; CER O-demethylation): 0.024 µM⁻¹ min⁻¹ | Km (CYP2C8.1 [4]; CER O-demethylation): 24 ± 3 µM | kcat (CYP2C8.1 [4]; CER O-demethylation): 0.57 ± 0.02 nmol nmol P450^−1 min^−1 | Km (CYP2C8.1 [4]; [15]): 23 ± 2 µM | kcat (CYP2C8.1 [4]; [15]): 0.22 ± 0.01 nmol nmol P450^−1 min^−1 | Clint (CYP2C8.1 [4]; CER hydroxylation): 0.0096 µM⁻¹ min⁻¹

CC(=O)O[C@H]1C(=O)[C@@]2(C)[C@H]([C@H](OC(=O)c3ccccc3)[C@]3(O)C[C@H](OC(=O)[C@H](O)[C@@H](NC(=O)c4ccccc4)c4ccccc4)C(C)=C1C3(C)C)[C@]1(OC(C)=O)CO[C@@H]1C[C@@H]2O [PAC, paclitaxel]
inhibition of CYP-activity by cytochrome b5 (CYP2C8): strong inhibition | activity of CYP2C8.3 compared to CYP2C8.1 (CYP2C8.3 [5]): less active | decrease of Km, red of CYP2C8.3 in comparison to CYP2C8.1 [2]: ~7 fold | % change in Bmax, first binding event (CYP2C8.3 [3]): +79% | % change in Bmax, second binding event (CYP2C8.3 [3]): −14% | Ki (CYP2C8.3 [6]): 103000 nM | substrate inhibition (CYP2C8.1 [7]; CYP2C8.1): negligible | fold higher Clint (kcat/Km) for CYP2C8.3 compared to CYP2C8.1 (CYP2C8.3 [8]; DEAQ formation, p-hydroxy and N-de-methyl RG, PAC 6α-hydroxylation): 1.5 fold | Clint (CYP2C8.3 [8]; PAC 6α-hydroxylation): 0.16 µM⁻¹ min⁻¹

CN(CCOc1ccc(CC2SC(=O)NC2=O)cc1)c1ccccn1 (centres unmarked) [RG, rosiglitazone]
Ki (CYP2C8.3 [6]): 150000 nM | Clint (CYP2C8.1 [7]; RG N-de-methylation): 0.13 µM⁻¹ min⁻¹ | Clint (CYP2C8.1 [7]; RG p-hydroxylation): 0.11 µM⁻¹ min⁻¹ | Clint (CYP2C8.3 [8]; RG N-de-methylation): 0.33 µM⁻¹ min⁻¹ | Clint (CYP2C8.3 [8]; RG p-hydroxylation): 0.29 µM⁻¹ min⁻¹

B1: CYP2C8.1 (Homo sapiens) (protein)
chain: T1 sequence (P10632 1-490 R139K/K399R) with K139R, R399K
Km [9]: 4.0 ± 0.8 µM and 2.9 ± 0.6 µM | Km [10]: 3.0 ± 0.4 µM | kcat [10]: 0.095 ± 0.00333 s⁻¹ | kcat/Km [10]: 31700 M⁻¹ s⁻¹ | Km [11]: 3.7 ± 0.6 µM | kcat [11]: 0.00483 s⁻¹ | kcat/Km [11]: 1830 M⁻¹ s⁻¹

B2: CYP2C8.3 (Homo sapiens; K399R/R139K) (protein)
chain: T1 sequence (P10632 1-490 R139K/K399R)
Km [11]: 4.7 ± 0.7 (−) µM | kcat [11]: 0.0127 s⁻¹ | kcat/Km [11]: 2670 M⁻¹ s⁻¹ | Km [12]: 10.2 ± 0.9 µM and 8.0 ± 0.6 µM | Km [13]: 7.5 ± 0.5 µM | kcat [13]: 0.497 ± 0.0117 s⁻¹ | kcat/Km [13]: 66700 M⁻¹ s⁻¹

B3: CPR: Rat cytochrome P450 reductase, expressed; redox partner of CYP2C8 (protein, UniProt P00388 2-678, looked up)
NADPH--cytochrome P450 …: GDSHEDTSATMPEAVAEEVSLFSTTDMVLFSLIVGVLTYWFIFRKKKEEIPEFSKIQTTAPPVKESSFVEKMKKTGRNIIVFYGSQTGTAEEFANRLSKDAHRYGMRGMSADPEEYDLADLSSLPEIDKSLVVFCMATYGEGDPTDNAQDFYDWLQETDVDLTGVKFAVFGLGNKTYEHFNAMGKYVDQRLEQLGAQRIFELGLGDDDGNLEEDFITWREQFWPAVCEFFGVEATGEESSIRQYELVVHEDMDVAKVYTGEMGRLKSYENQKPPFDAKNPFLAAVTANRKLNQGTERHLMHLELDISDSKIRYESGDHVAVYPANDSALVNQIGEILGADLDVIMSLNNLDEESNKKHPFPCPTTYRTALTYYLDITNPPRTNVLYELAQYASEPSEQEHLHKMASSSGEGKELYLSWVVEARRHILAILQDYPSLRPPIDHLCELLPRLQARYYSIASSSKVHPNSVHICAVAVEYEAKSGRVNKGVATSWLRAKEPAGENGGRALVPMFVRKSQFRLPFKSTTPVIMVGPGTGIAPFMGFIQERAWLREQGKEVGETLLYYGCRRSDEDYLYREELARFHKDGALTQLNVAFSREQAHKVYVQHLLKRDREHLWKLIHEGGAHIYVCGDARNMAKDVQNTFYDIVAEFGPMEHTQAVDYVKKLMTKGRYSLDVWS
Kd (CYP2C8.1 [14]): 29.4 ± 0.2 nM | % change in Bmax, redox partner binding (CYP2C8.3 [3]): +76% | Kd (CYP2C8.3 [3]): 20.7 ± 0.2 nM

B4: Cytochrome b5: expressed cytochrome b5; redox partner of CYP2C8 (protein, UniProt P00167 2-134, looked up)
Cytochrome b5: AEQSDEAVKYYTLEEIQKHNHSKSTWLILHHKVYDLTKFLEEHPGGEEVLREQAGGDATENFEDVGHSTDAREMSKTFIIGELHPDDRPKLNKPPETLITTIDSSSSWWTNWVIPAISAVAVALMYRLYMAED
Kd (CYP2C8.1 [14]): 34.4 ± 0.4 nM | % change in Bmax, redox partner binding (CYP2C8.3 [3]): +298% | Kd (CYP2C8.3 [3]): 16.8 ± 0.3 nM
